# Assay results as given in patent US6368788B1 (priority 1987, dated 2002).
# Where “and” joins values, the source holds several entries; their conditions need not be identical. Equal values may be shown once. Read-outs that look alike come from different tables or passages of the source. Marks after values point to notes of the source that are not given here.
# How the values were obtained:
# [1] = Patients after radiation and chemotherapy, L-Glu-L-Trp 100 μg daily 10 days; details: human, in vivo
# Method: A total of 246 patients were eventually entered into studies after receiving radiation and chemotherapy. L-Glu-L-Trp was administered to the patients in single 100 μg daily dose for each of 10 days during the period of chemotherapy. A control group constituted 158 similar patients (following radiation and chemotherapy), and these patients were treated in a conventional manner (i.e., chemotherapy and support therapy). […] Immune parameters were periodically monitored over the next 4-6 months in the patients and decreased levels of lymphocytes or their subpopulations were used as clinical triggers for additional therapeutic intervention with L-Glu-L-Trp.
# neutrophils = test: Neutrophil response to proteose peptone and phagocytic activity in CBA mice; assay type: in vivo; details: for Phagocytes (%) / Phagocytic Index: induced neutrophils; for Total Number of Cells Induced: neutrophil response to proteose peptone
# [2] = test system: lymphocytes of lymphoid organs; test: Immune indices (E-RFC, EA-RFC, EAC-RFC) in healthy guinea pigs; assay type: in vivo; details: for E-RFC / EA-RFC / EAC-RFC: healthy guinea pigs, 1 mg/kg im daily 5 days, day 10
# Method: Immune parameters were investigated in healthy male guinea pigs ([…]) following administration of test or control agents. Each test and control group consisted of 10 animals. […] Physiological saline was administered im to the animals of the control group. The affects of these treatments were determined on day 10 (i.e., 5 days after the last injection) by preparing cells from peripheral blood (PBL), thymus (TYM), lymph nodes (LN), spleen (SPL), and red pulp of bone marrow (BM). Cells were tested for antibody Fc receptors (EA-RFC), complement receptors (EAC-RFC), T-lymphocytes, “active” T-lymphocytes (E-RFC), B-lymphocytes (EA-RFC and EAC-RFC; according to the method of Bianco, C., et al., J. Exp. Med. 132(4):702-720 (1970). The results of these analyses are shown in TABLES 53-54, below, where data are expressed either as the number of RFC×10^9 per liter of blood, or RFC×10^3 per milligram (mg) of tissue.
# Thymus, left paratracheal lymph node, and spleen were surgically removed, weighed, and homogenized in a glass Dounce homogenizer in Medium 199. Tissue fragments were removed by filtration through a chaperon. Bone marrow cell suspensions were prepared by irrigating the bone marrow canal of the pelvis with Medium 199 and homogenizing the irrigated solution. Suspensions from the different respective sources were purified by centrifuging the different cell samples on different aliquots of δ1.077 Ficoll-Urotrast for 40 minutes at 1500-1800 rpm. The lymphocyte interfaces from the gradients were collected into a siliconized test tube and washed in Medium 199. Residual red cells in the lymphocyte suspensions were lysed using 3% acetic acid in the presence of 0.05% Hessian-violet as a viability marker. Cell concentrations were determined microscopically using a Goryaev counting chamber. Cell concentrations were adjusted to 2.5×10^6/mL.
# Ram erythrocytes (E) were washed 4× in saline (2000 rpm/10 min.) and suspended at a final concentration of 1% in Medium 199. For determinations of the percentage of E-rosette forming T-lymphocytes (E-RFC) in a sample, 0.1 mL of a prepared lymphocyte suspension (2.5×10^6/ml) was incubated with 0.1 mL of the 1% ram erythrocyte suspension at 37° C. for 10 min., centrifuged at 800-1000 rpm for 5 min., maintained at 4° C. for 2 hrs., and finally resuspended and counted in a Goryaev chamber. Activated T-lymphocytes (i.e., having increased E-RFC capacity) were determined by mixing the test lymphocyte suspension with E, immediately centrifuging for 5 min. at 800-1000 rpm, resuspending the cells and counting the rosettes formed in a Goryaev chamber.
# Antibody-coated rabbit erythrocytes were used for determinations of EA-RFC (i.e., “activated” T-lymphocytes) according to the method of Stadecker, M. J., et al., J. Immunol. 11(6):1834-1837 (1973). Erythrocytes were prepared, incubated with an optimal dilution of anti-rabbit IgG, washed, and prepared as a 1% cell suspension in a manner analogous to those above (E-RFC, supra). EA-RFC assays were performed in a manner analogous to the description above, i.e., E-RFC, supra.
# Determinations of EAC-RFC (i.e., B-lymphocytes) were performed according to the method described by Bianco, C., et al., J. Exp. Med. 132(4):702-720 (1970).
# [3] = test system: E-rosette forming (CD2^+) T-lymphocytes; test: In vitro incubation of the children's lymphocytes: E-rosette forming (CD2+) T-lymphocytes; assay type: cell-based, human
# C. albicans = assay type: in vivo, mice; details: PDR
# [4] = test system: E-receptors on thymocytes; test: Expression of E-receptors on trypsin-treated thymocytes (E-RFC); assay type: cell-based, guinea pigs; details: for E-RFC (%): trypsin-treated thymocytes
# Method: Thymus cells were isolated from male guinea pigs (180-200 g) under standard conditions of tissue mincing and differential centrifugation in Medium 199. Isolated thymocytes were treated with trypsin to remove cell surface E-receptors capable of binding rabbit erythrocytes (E). The percentage of cells capable forming E-rosettes (E-RFC) was decreased by about two-fold under these conditions.
# L-Glu-L-Trp has been reported to restore T-cell receptors and E-RFC following incubation at 37° C. Studies were conducted in which the activity of L-Glu-L-Trp dipeptide were compared in the latter assay.
# Thymocytes were prepared from 48 guinea pigs, treated with trypsin, and tested for E-RFC.
# [5] = Influenza symptoms and sinusitis (Protocol F); assay type: in vivo, human
# Method: Summary Overview: Fifty-one patients (51) were treated daily for 3-10 days with either 100 μg L-Glu-L-Trp administered im, or 1 μg/kg administered intranasally. A control group of 24 similar patients remained untreated.
substance,measurement,setting,value
L-Glu-L-Trp,Clinical outcome,[1],decreased incidence and severity of post-operative complications
same,Exudate cell concentration,neutrophils; 0.01 mg/kg,0.9×10^6
same,Neutrophil migration and phagocytic activity,neutrophils; 0.01 mg/kg,did not appear to stimulate neutrophil migration
same,Increase in percentage of phagocytic cells,"neutrophils; 1 mg/kg, six day ip pretreatment",1.5 fold and 1.7 fold
same,Phagocytes (%),neutrophils; 0.1 mg/kg (so in the source),17.8 ± 1.13%
same,Phagocytic Index,neutrophils; 0.1 mg/kg (so in the source),1.90 ± 0.05 No. bacteria/phagocyte
same,Phagocytes (%),neutrophils; 1 mg/kg,31.5 ± 0.4 %
same,Phagocytic Index,neutrophils; 1 mg/kg,1.89 ± 0.03 No. bacteria/phagocyte
same,Number of neutrophils induced by proteose peptone,neutrophils; ip pretreatment (0.1 mg/kg),doubled
same,Total Number of Cells Induced,neutrophils; 0.01 mg/kg ip pretreatment,50 ×10^6
same,Total Number of Cells Induced,neutrophils; 1 mg/kg ip pretreatment,80* ×10^6
same,"Neutrophils, Phagocytic Index","neutrophils; treated mice, sterile inflammatory agent",ns
same,Decrease of T-lymphocytes in LN and BM,"[2]; 1 mg/kg im, 5 days",50%
same,Increase of splenic and thymus T-cells,"[2]; 1 mg/kg im, 5 days",2-9%
same,E-RFC,[2]; BM,11.2 ± 2.3* 10^3/mg
same,EA-RFC,[2]; BM,25.1 ± 1.9* 10^3/mg
same,EAC-RFC,[2]; BM,13.9 ± 2.1 10^3/mg
same,E-RFC,[2]; LN,81.4 ± 7.6* 10^3/mg
same,EA-RFC,[2]; LN,61.7 ± 8.2 10^3/mg
same,EAC-RFC,[2]; LN,173.3 ± 12.7 10^3/mg
same,E-RFC,[2]; PBL,1.59 ± 0.78 10^9/L
same,EA-RFC,[2]; PBL,0.82 ± 0.09 10^9/L
same,EAC-RFC,[2]; PBL,0.79 ± 0.08* 10^9/L
same,E-RFC,[2]; SPL,75.9 ± 6.8 10^3/mg
same,EA-RFC,[2]; SPL,81.2 ± 7.4* 10^3/mg
same,EAC-RFC,[2]; SPL,141.5 ± 22.6 10^3/mg
same,E-RFC,[2]; TYM,448.1 ± 51.4 10^3/mg
same,EA-RFC,[2]; TYM,542.6 ± 42.3 10^3/mg
same,EAC-RFC,[2]; TYM,0 10^3/mg
same,Increase of complement receptor bearing cells (EAC-RFC) in blood,"[2]; guinea pig, in vivo",2 fold
same,"CD2+ lymphocytes (E-RFC), BM",[2]; treated guinea pigs,50% ↓ (p < 0.05)
same,"CD2+ lymphocytes (E-RFC), LN",[2]; treated guinea pigs,32% ↓ (p < 0.05)
same,"CD2+ lymphocytes (E-RFC), Spleen",[2]; treated guinea pigs,ns
same,"CD2+ lymphocytes (E-RFC), Thymus",[2]; treated guinea pigs,ns
same,"Fc-receptor+ lymphocytes (EA-RFC), LN",[2]; treated guinea pigs,ns
same,"Fc-receptor+ lymphocytes (EA-RFC), PBL",[2]; treated guinea pigs,ns
same,"Fc-receptor+ lymphocytes (EA-RFC), Thymus",[2]; treated guinea pigs,ns
same,Percentage of E-rosette forming (CD2+) T-lymphocytes,[3],increase in the percentage of E-rosette forming (CD2^+) T-lymphocytes
same,Germ Tube (%),C. albicans; 0.1 μg/kg ip,35* %
same,Germ Tube (%),C. albicans; 1 μg/kg ip,34* %
same,Germ Tube (%),C. albicans; 10 μg/kg ip,35* %
same,Germ Tube (%),C. albicans; 100 μg/kg ip,26* %
same,Germ Tube (%),C. albicans; 300 μg/kg ip,37%
same,Percentage of E-RFC,[4]; 0.01-1 mg/mL,increased the percentage of E-RFC in trypsin-treated thymocyte cultures
same,E-RFC (%),[4]; Conc. 0.0001 mg/ml,30.3 ± 3.1 %
same,E-RFC (%),[4]; Conc. 0.01 mg/ml,36.8 ± 2.4 %
same,E-RFC (%),[4]; Conc. 1 mg/ml,42.8 ± 3.5 %
same,Clinical outcome,[5]; in vivo,"reduced nasal mucous swelling, normalization of breathing"
same,Decrease of total duration of patient treatment,[5]; vs control group,up to 1.7 fold
